Source: PubChem BioAssay AID1845207 (Molecular Pharmacology Branch, DTP, NCI, 2023)
“And” between values parts separate entries of the source, which are not always exact repeats. Equal entries are not always repeated.

Test system: NCI-H1876 tumor spheroid viability
Test: Anticancer human tumor NCI-H1876 cell line growth inhibition;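 note: spheroids exposed to compounds for seven days before the viability read; percent of DMSO vehicle control viability so 100% = vehicle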
Settings: active compounds read low, spheroids with HUVEC and MSC; active = viability on the fitted dose curve at most 10% of control; inactive = the rest
Outline: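 Single agents and combinations were tested on spheroids built from tumor cells plus HUVEC and hMSC, at half-log dilutions starting at or near clinical Cmax, else 10 microM; final DMSO 0.25% (v/v).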

Measured: viability, T/C

Cc1cc(C)c(CNC(=O)c2cc(-c3ccc(CN4CCOCC4)cc3)cc3c2cnn3C2CCCC2)c(=O)[nH]1
inactive: compound 0.0316 µM 100% and 97.7% and 96.6% | compound 0.1 µM 102% and 83.9% and 79.4% | compound 0.316 µM 105% and 63% and 63.8% | compound 1 µM 105% and 49.2% and 51.9% | compound 3.16 µM 107% and 28.4% and 30.3% | compound 10 µM 99.2% and 12% and 11.3%
